Results published in ChEMBL document CHEMBL1135835, “Biological activity of the tryprostatins and their diastereomers on human carcinoma cell lines” (2002).

Columns and labels:
Assay type in all cases: functional
PC-3 [1] = experiment: Growth inhibitory activity against PC-3 (human prostate) cancer cell line at 10 uM dose.
MCF7 [2] = experiment: Growth inhibitory activity against MCF-7 (human breast) cancer cell line at 10 uM dose.
NCI-H520 [3] = experiment: Growth inhibitory activity against H520 (human lung) cancer cell line at 100 uM dose.
PC-3 [4] = experiment: Growth inhibitory activity against PC-3 (human prostate) cancer cell line at 100 uM dose.
NCI-H520 [5] = experiment: Growth inhibitory activity against H520 (human lung) cancer cell line at 10 uM dose
MCF7 [6] = experiment: Growth inhibitory activity against MCF-7 (human breast) cancer cell line at 100 uM dose.
MCF7 [7] = experiment: Gowth inhibitory activity against MCF-7 (human lbreast) cancer cell line
NCI-H522 = experiment: Growth inhibitory activity against NCI-H522 (human lung) cancer cell line
PC-3 [8] = experiment: Growth inhibitory activity against PC-3 (human prostate) cancer cell line

Row | Compound | Cell survival (PC-3 [1]) [%] | Cell survival (MCF7 [2]) [%] | Cell survival (NCI-H520 [3]) [%] | Cell survival (PC-3 [4]) [%] | Cell survival (NCI-H520 [5]) [%] | Cell survival (MCF7 [6]) [%] | GI50 (MCF7 [7]) [µM] | GI50 (NCI-H522) [µM] | GI50 (PC-3 [8]) [µM]
1 | CC(C)=CCc1[nH]c2ccccc2c1C[C@H]1NC(=O)[C@@H]2CCCN2C1=O | 97.3 | >100 | 76.5 | 68.5 | >100 | >100 | – | – | –
2 | CC(C)=CCc1[nH]c2ccccc2c1C[C@@H]1NC(=O)[C@@H]2CCCN2C1=O [TRYPROSTATIN B] | 95.5 | 88.2 | 60.5 | 68.9 | 77.6 | 66.7 | – | – | –
3 | COc1ccc2c(C[C@@H]3NC(=O)[C@@H]4CCCN4C3=O)c(CC=C(C)C)[nH]c2c1 [TRYPROSTATIN A] | 99.2 | >100 | 79.4 | 95.6 | 80.1 | 95 | – | – | –
4 | CC(C)=CCc1[nH]c2ccccc2c1C[C@H]1NC(=O)[C@H]2CCCN2C1=O | 95.8 | >100 | 99.8 | 78.9 | >100 | >100 | – | – | –
5 | COc1ccc2c(C[C@H]3NC(=O)[C@@H]4CCCN4C3=O)c(CC=C(C)C)[nH]c2c1 | >100 | >100 | >100 | >100 | >100 | >100 | – | – | –
6 | COc1ccc2c(C[C@@H]3NC(=O)[C@H]4CCCN4C3=O)c(CC=C(C)C)[nH]c2c1 | >100 | >100 | 98.5 | >100 | 99.3 | 99 | – | – | –
7 | COc1ccc2c(C[C@H]3NC(=O)[C@H]4CCCN4C3=O)c(CC=C(C)C)[nH]c2c1 | >100 | >100 | 75.2 | 83.7 | 81.7 | >100 | – | – | –
8 | CC(C)=CCc1[nH]c2ccccc2c1C[C@@H]1NC(=O)[C@H]2CCCN2C1=O | 59.3 | 73.6 | 0.1 | 0.2 | 88.3 | 0 | 15.9 | 15.8 | 11.9
